The source made the active and inactive calls.

One test deals with INS1. The experiment in a line: beta cell apoptosis inhibitors, cytokine rescue, dose response, luminescence, retest (AID 449756).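 Also: cell death triggered by IL-1 beta plus TNF-alpha plus IFN-gamma mixture; protective hits raise ATP signal compared with cytokine alone wells.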 Particulars: Rattus norvegicus. It is filed as functional, cell-based.
Test [1] relates to HEK293. Kind of test: cytotoxicity in HEK293T NF-kB-Luc cells, SAR follow-up, cytotoxicity control for NF-kB activator project, cell-based, resazurin fluorescence (AID 493251). It is filed as functional. The settings on record: Homo sapiens. On the technique in general: Alamar Blue is a resazurin reagent that responds to reducing activity.
Test [2] can be described thus: inhibitors of firefly luciferase expression or activity, dose response, H4 neuroglioma cells, luminescence (AID 1990). Format: functional, cell-based.
Test [3] can be described thus: Luminescence Cell-Based Dose Response HTS to Identify Inhibitors of 5'UTR Stem-Loop Driven Prion Protein mRNA Translation in H4 Neuroglioblastoma Cells. [Related pubchem assays: 1827 (Project Summary), 1813 (Primary HTS)]. Format: functional.
A short description of test [4]: inhibitors of SNCA 5'UTR-driven reporter translation, confirmation, H4 neuroglioma cells, luminescence (AID 1988). It is filed as functional, cell-based.
The test system of test [5] is HEK293. The experiment in a line: SAR Analysis of small molecule inhibitors of T-cell specific antigen receptor-induced NF-kB activation in a HEK-293T cell line using a luminescence assay - Set 2. [Related pubchem assays (depositor defined):AID435003, AID435012, AID489026]. Particulars: Homo sapiens. Format: functional, cell-based.
Test [6] has as its system Jurkat. The experiment in a line: SAR Analysis of small molecule inhibitors of T-cell specific antigen receptor-induced NF-kB activation in a Jurkat cell line using a luminescence assay - Set 2. [Related pubchem assays (depositor defined):AID435003, AID435012, AID465]. Format: functional, cell-based. The settings on record: Homo sapiens.
The subject of the next test is Vero. The experiment in a line: cells. Format: functional. The settings on record: Chlorocebus sabaeus.
Test [7] in a line: mammalian cell cytotoxicity, dose response, cytotoxicity control, plate reader, cherry-pick samples (AID 504397). Format: functional, cell-based.
The next test has as its target CAAX prenyl protease 2 (Saccharomyces cerevisiae S288c, UniProt Q03530). The experiment in a line: yeast Rce1 CaaX protease inhibitors, dose response, biochemical, plate reader, dry powder retest (AID 588851).
Test [8] deals with Glycogen synthase kinase-3 alpha (Homo sapiens, UniProt P49840). Kind of test: Inhibition of Human GSK-3 alpha Activity Measured in Biochemical System Using Microfluidics - 2063-06_Inhibitor_Dose_DryPowder_Activity. [Related pubchem assays (depositor defined):AID2709].
The target in test [9] is Glycogen synthase kinase-3 beta (Homo sapiens, UniProt P49841). Kind of test: Inhibition of Human GSK-3 beta Activity Measured in Biochemical System Using Microfluidics - 2063-05_Inhibitor_Dose_DryPowder_Activity. [Related pubchem assays (depositor defined):AID2709].
The subject of test [10] is Jurkat. The experiment in a line: antigen receptor-induced NF-kB inhibitors, dose response, Jurkat, luciferase reporter, luminescence, B- and T-cell (AID 489004).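 Also: NF-kB luciferase reporter Jurkat cells stimulated with PMA plus ionomycin.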 Format: functional, cell-based. Particulars: Homo sapiens. In general terms: Reporter assays use an easily measured gene product as a stand-in for the process of interest.
Test [11] is described as follows: cytotoxicity in HEK-293T NF-kB-Luc cells, dose response, cytotoxicity control for B/T-cell NF-kB inhibitor project, cell-based, uHTS hits (AID 489019).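 Also: IC50 reflects cytotoxicity as loss of cell viability.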 It is filed as functional.
The target in test [12] is Benomyl/methotrexate resistance protein (Candida albicans, UniProt P28873). Kind of test: CaMdr1 efflux pump inhibitor potency, dose response, singleplex, Cherry Pick2 set (AID 623992). It is filed as functional. The settings on record: read-out: EC50_MICROM.
Test [13] has as its target Multidrug resistance protein CDR1 (Candida albicans, UniProt P43071). The experiment in a line: CaCDR1 efflux pump inhibitors in yeast, dose response, S. cerevisiae AD1-8u, singleplex, Cherry Pick1 hits (AID 588606). It is filed as functional.
The nature of test [14]: growth induction of Burl-1 ts yeast mutant, dose response, counter-screen for SUMOylation pathway inhibitor project, whole organism, S. cerevisiae, luminescence (AID 463199). It is filed as functional. Background: A counterscreen serves to expose hits that act by an unwanted route or on another target.
Test [15] addresses NAD-dependent protein deacylase sirtuin-5, mitochondrial (Homo sapiens, UniProt Q9NXA8). The experiment in a line: SIRT5 desuccinylase inhibitors, dose response, biochemical, fluorescence imaging, cherry-pick, set 5 (AID 720591).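 Also: desuccinylation of succinyl peptide AMC substrate read as fluorescence after trypsin release; potency of inhibitors that lower fluorescence and may act on trypsin instead.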
Test [16] addresses RNA-editing ligase 1, mitochondrial (Trypanosoma brucei brucei, UniProt P86926). Kind of test: TbREL1 ligase inhibitors, dose response, biochemical, fluorescence, Trypanosoma brucei (AID 1117295). Format: functional.
Test [17] concerns the target T1, Fructose-bisphosphate aldolase (Mycobacterium tuberculosis, UniProt P9WQA3).
T1 sequence (P9WQA3 whole entry): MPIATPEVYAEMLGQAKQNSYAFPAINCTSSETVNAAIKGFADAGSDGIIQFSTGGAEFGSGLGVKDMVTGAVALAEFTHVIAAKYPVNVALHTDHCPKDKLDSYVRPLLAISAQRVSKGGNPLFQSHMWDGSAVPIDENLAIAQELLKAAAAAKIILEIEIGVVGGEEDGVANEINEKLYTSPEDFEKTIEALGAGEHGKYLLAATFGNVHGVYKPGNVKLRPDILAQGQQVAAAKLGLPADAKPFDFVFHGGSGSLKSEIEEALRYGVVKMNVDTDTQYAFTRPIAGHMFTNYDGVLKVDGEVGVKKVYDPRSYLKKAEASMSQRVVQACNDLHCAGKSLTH
Kind of test: Fluorescence-based biochemical high throughput dose response assay for inhibitors of the fructose-bisphosphate aldolase (FBA) of M. tuberculosis. It is filed as functional.

For test [18], the target named is T2, Carboxy-terminal domain RNA polymerase II polypeptide A small phosphatase 1 (Homo sapiens, UniProt Q9GZU7).
T2 sequence (Q9GZU7 whole entry): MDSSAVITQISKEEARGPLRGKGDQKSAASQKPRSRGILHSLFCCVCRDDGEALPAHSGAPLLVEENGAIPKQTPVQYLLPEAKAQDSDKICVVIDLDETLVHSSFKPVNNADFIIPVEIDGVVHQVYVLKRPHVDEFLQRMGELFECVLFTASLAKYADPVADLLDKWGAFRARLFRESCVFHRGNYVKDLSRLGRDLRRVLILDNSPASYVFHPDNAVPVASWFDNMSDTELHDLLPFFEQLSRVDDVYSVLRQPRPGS
Kind of test: inhibitors of CTDSP1, concentration-response testing, biochemical assay, absorbance-based, actives from ultra-high-throughput screening (AID 540297). Format: functional.

A further test concerns the target Keap1/Nrf2 (Homo sapiens, UniProt Q14145). The experiment in a line: Keap1-Nrf2 protein-protein interaction inhibitors, dose response, biochemical, fluorescence polarization, cherry-picked samples (AID 588683).
In test [19] the target is T3, Corticotropin-releasing factor receptor 2/Corticotropin-releasing factor-binding protein (Homo sapiens, UniProt P24387+Q13324).
T3 sequence (Q13324 whole entry): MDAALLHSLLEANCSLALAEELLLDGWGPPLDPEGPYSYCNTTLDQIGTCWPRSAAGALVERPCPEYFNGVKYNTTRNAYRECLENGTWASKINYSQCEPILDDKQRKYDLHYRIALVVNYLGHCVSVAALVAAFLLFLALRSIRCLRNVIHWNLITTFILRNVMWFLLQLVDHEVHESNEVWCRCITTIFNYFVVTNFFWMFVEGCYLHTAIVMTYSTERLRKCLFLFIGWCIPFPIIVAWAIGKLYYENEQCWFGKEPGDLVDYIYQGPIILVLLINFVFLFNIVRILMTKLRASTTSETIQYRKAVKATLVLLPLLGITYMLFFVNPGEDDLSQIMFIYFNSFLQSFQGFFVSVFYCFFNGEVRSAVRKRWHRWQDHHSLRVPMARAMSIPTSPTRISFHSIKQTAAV
T3 sequence (P24387 whole entry): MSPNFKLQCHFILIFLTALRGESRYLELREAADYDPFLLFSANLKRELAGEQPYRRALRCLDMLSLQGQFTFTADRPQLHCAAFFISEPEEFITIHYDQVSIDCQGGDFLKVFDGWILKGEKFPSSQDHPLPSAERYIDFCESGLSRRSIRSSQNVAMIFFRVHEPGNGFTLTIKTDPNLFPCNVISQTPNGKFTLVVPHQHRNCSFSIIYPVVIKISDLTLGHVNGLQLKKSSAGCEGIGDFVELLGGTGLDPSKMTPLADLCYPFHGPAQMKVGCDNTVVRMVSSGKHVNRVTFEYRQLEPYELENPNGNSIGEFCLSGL
The experiment in a line: activators of CRF receptor 2 with binding protein – uHTS hits, confirmation (AID 602473). Particulars: read-out: EC50_Mean. It is filed as functional.

Test [20] has as its target Dual specificity protein kinase CLK1 (Homo sapiens, UniProt P49759). The experiment in a line: CLK1 kinase inhibitors, off-target check, dose response, selectivity assay for Dyrk1A inhibitor project, biochemical, cherry-picked samples (AID 588811).
The target in test [21] is Dual specificity protein phosphatase 3 (Homo sapiens, UniProt P51452). Kind of test: SAR VHR1 Fluorescent Assay for In Vitro dose response studies Set 2. [Related pubchem assays (depositor defined):AID1654, AID1661, AID1878]. It is filed as functional.
Test [22] has as its target Dual specificity protein phosphatase 6 (Rattus norvegicus, UniProt Q64346). It is filed as functional.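 Also: confirmatory in vitro dose-response testing of MKP-3 inhibition; recombinant His-tagged MKP-3 made in E. coli BL21 with OMFP substrate.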
A further test addresses Hexokinase-1 (Homo sapiens, UniProt P19367). The experiment in a line: HK1 enzyme inhibition by HKDC1 hits, SAR follow-up, selectivity assay for HKDC1 inhibitor project, biochemical, set 2, resazurin fluorescence coupled readout (AID 588356). It is filed as functional.
The target of the next test is Hexokinase HKDC1 (Homo sapiens, UniProt Q2TB90). Kind of test: HKDC1 hexokinase inhibitors, SAR follow-up, biochemical, set 2 (AID 588355). Format: functional.
Test [23] is described as follows: C. albicans growth with fluconazole, confirmation, fluorescence, retest (AID 2467). It is filed as functional, cell-based.
Test [24] deals with ATP-dependent molecular chaperone HSP82 (Candida albicans (strain WO-1) (Yeast), UniProt C4YTQ8). The experiment in a line: loss of DOC-induced GRE-beta-galactosidase reporter signal, dose response, Hsp90 inhibitor project, S. cerevisiae, luminescence (AID 2400).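 Also: beta-galactosidase luminescence from glucocorticoid response element reporter as proxy for Hsp90 function; inhibitor potency where signal loss means Hsp90 inhibition.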 It is filed as functional, cell-based.
Test [25] has as its target Serine/threonine-protein phosphatase (Candida dubliniensis (strain CD36 / CBS 7987 / NCPF 3949 / NRRLY-17841) (Yeast), UniProt B9W6M3). Kind of test: calcineurin pathway inhibitors in yeast reporter, dose response, S. cerevisiae, CDRE-lacZ, luminescence, secondary (AID 2388).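 Also: yeast reporter cells carrying a calcineurin-responsive lacZ construct stimulated with calcium chloride; luminescent beta-galactosidase reporter signal in whole cells rather than isolated phosphatase activity; potency for inhibition where a drop in reporter signal means calcineurin blockade.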 It is filed as functional, cell-based.
The nature of test [26]: NIH-3T3 fibroblast cytotoxicity, dose response, cytotoxicity control, cell-based, fluorescence, Alamar Blue, secondary assay (AID 2327).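 Also: NIH-3T3 mouse fibroblasts cultured with fluconazole at 8 µg/mL.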 It is filed as functional.

RNA-editing ligase 1, mitochondrial, sequence (P86926 whole entry): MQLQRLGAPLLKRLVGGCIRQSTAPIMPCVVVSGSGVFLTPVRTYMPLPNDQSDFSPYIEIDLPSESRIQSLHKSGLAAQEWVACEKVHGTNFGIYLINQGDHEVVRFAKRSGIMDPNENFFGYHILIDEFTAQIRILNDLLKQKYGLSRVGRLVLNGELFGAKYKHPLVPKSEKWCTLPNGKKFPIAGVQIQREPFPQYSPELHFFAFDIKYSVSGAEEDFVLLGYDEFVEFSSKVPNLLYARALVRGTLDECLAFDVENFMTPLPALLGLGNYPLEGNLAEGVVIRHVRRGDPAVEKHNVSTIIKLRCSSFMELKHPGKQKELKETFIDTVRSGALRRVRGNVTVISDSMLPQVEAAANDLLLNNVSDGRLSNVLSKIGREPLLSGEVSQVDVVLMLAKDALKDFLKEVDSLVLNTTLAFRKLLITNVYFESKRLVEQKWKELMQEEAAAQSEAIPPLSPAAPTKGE
Dual specificity protein phosphatase 3, sequence (P51452 whole entry): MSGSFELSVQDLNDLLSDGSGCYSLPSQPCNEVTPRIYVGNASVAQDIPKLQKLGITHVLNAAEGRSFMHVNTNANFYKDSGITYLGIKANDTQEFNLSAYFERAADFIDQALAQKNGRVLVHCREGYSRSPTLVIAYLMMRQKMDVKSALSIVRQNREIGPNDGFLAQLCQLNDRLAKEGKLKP
Glycogen synthase kinase-3 beta, sequence (P49841 whole entry): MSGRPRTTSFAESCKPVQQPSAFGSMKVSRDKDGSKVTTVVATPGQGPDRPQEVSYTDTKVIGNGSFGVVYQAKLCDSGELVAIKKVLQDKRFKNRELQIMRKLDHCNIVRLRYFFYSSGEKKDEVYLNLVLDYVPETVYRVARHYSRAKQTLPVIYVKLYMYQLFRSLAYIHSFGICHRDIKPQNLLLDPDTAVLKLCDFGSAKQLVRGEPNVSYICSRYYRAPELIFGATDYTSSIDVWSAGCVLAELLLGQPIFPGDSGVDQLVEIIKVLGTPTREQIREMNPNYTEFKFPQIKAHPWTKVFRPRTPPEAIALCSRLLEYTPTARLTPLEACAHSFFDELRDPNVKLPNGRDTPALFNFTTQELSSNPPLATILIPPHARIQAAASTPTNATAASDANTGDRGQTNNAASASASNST
NAD-dependent protein deacylase sirtuin-5, mitochondrial, sequence (Q9NXA8 whole entry): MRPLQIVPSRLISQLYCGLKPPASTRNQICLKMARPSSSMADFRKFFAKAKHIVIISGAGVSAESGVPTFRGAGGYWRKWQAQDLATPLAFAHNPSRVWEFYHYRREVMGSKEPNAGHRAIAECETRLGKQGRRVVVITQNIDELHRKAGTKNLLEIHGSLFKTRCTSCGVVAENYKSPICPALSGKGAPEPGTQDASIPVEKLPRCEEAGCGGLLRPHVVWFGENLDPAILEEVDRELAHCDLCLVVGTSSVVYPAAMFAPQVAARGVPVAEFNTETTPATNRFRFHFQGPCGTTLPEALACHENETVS
Glycogen synthase kinase-3 alpha, sequence (P49840 whole entry): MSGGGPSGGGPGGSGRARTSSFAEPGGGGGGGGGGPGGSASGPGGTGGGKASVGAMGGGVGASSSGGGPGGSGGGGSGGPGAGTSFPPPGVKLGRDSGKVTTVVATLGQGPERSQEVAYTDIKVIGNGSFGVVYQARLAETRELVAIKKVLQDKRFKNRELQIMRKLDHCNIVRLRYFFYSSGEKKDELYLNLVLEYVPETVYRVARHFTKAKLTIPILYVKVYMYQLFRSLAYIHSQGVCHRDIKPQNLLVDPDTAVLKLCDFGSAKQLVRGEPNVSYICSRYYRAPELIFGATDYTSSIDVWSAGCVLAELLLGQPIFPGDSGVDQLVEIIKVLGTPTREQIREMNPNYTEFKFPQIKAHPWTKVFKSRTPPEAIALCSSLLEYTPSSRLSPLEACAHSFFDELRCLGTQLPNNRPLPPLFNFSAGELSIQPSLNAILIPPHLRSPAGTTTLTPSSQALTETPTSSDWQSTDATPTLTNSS
Multidrug resistance protein CDR1, sequence (P43071 whole entry, looked up): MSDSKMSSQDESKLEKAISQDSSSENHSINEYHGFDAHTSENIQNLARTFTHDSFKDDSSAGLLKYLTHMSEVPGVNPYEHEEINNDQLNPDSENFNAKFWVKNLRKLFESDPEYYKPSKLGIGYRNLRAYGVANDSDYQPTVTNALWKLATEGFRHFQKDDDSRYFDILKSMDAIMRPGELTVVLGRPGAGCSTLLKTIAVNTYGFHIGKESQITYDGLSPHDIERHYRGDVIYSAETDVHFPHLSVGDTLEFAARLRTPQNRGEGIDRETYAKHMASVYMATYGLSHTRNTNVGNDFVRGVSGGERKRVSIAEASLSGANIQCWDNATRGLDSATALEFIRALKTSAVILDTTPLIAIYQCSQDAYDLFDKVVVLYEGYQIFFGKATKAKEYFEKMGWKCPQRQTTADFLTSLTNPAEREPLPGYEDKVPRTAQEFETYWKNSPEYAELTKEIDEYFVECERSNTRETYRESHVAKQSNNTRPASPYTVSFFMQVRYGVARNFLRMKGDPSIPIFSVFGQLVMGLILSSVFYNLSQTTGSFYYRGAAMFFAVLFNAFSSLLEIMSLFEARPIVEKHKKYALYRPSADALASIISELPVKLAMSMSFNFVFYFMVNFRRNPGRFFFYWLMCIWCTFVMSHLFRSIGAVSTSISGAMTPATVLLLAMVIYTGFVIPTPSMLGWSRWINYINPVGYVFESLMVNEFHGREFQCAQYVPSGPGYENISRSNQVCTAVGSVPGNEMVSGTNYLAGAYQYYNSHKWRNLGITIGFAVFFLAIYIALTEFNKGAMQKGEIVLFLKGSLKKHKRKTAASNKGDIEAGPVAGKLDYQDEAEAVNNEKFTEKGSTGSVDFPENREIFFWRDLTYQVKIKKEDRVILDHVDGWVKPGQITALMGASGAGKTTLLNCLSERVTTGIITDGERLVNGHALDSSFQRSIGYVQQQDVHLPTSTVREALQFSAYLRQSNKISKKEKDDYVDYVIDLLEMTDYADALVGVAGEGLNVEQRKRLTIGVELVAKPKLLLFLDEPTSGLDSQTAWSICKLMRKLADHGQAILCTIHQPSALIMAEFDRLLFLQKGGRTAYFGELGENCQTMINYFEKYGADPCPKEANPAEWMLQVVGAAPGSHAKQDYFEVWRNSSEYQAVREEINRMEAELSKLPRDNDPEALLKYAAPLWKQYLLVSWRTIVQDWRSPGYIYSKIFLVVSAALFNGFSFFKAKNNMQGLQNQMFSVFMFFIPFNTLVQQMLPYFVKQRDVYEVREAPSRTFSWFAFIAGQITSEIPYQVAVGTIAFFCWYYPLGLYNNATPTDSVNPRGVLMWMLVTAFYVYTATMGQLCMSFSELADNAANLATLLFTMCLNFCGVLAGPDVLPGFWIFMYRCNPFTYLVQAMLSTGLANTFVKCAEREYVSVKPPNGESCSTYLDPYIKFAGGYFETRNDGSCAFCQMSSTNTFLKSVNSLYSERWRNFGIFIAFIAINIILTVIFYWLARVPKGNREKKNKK
Dual specificity protein kinase CLK1, sequence (P49759 whole entry): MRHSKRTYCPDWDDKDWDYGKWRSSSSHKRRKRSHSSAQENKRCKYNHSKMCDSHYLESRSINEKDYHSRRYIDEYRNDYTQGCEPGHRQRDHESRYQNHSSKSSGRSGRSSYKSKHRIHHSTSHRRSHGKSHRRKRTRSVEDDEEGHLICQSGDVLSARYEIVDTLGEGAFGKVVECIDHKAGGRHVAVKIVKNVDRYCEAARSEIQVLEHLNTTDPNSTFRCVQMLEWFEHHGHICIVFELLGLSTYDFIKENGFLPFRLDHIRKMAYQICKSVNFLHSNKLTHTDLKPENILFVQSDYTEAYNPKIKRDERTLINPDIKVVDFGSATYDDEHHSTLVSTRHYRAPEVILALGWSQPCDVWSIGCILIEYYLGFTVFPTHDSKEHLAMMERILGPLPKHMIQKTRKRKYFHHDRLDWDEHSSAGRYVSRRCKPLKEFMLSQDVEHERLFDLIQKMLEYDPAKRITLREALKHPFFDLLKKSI
ATP-dependent molecular chaperone HSP82, sequence (C4YTQ8 whole entry): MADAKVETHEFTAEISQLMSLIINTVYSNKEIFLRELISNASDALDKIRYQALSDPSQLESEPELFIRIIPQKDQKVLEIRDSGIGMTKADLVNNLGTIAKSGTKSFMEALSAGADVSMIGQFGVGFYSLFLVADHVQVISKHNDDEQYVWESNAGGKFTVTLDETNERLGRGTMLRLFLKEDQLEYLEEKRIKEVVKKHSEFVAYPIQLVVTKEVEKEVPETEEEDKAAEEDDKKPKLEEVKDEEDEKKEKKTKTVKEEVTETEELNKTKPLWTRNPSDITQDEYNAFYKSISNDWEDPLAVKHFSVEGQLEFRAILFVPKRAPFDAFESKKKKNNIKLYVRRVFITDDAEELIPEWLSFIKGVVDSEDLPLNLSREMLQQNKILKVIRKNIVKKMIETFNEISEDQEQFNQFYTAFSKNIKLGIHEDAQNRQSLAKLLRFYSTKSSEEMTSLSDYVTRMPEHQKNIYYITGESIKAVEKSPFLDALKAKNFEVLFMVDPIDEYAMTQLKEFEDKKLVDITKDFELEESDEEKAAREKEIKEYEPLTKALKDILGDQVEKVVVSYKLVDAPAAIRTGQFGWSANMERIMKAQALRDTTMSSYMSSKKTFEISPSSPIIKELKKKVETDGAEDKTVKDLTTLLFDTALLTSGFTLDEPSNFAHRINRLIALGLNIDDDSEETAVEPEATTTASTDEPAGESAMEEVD
Dual specificity protein phosphatase 6, sequence (Q64346 whole entry): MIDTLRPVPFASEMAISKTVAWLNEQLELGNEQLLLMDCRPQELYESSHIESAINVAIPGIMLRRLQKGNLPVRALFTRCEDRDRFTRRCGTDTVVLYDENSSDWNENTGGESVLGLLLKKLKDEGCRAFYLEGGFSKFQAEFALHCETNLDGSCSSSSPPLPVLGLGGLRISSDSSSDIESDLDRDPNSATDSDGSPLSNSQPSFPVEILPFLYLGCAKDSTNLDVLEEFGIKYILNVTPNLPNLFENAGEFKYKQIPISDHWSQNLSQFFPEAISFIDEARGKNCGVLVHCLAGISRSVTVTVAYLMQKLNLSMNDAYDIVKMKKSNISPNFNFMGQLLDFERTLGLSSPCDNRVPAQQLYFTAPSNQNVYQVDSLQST

Usually AC50 stands for the midpoint of the concentration-response curve, whichever way the signal moves. Broadly, the IC50 is the concentration needed to halve the response being measured. In general, CC50 refers to the concentration at which the toxic effect on the cells reaches its halfway point. As to `CCN1CCN(c2c(Cl)cccc2NC(=O)c2ccc([N+](=O)[O-])o2)CC1`, the AC50 with INS1 was 3.68 µM (active). The IC50 in the test on HEK293 [1] was 18.7 µM (active); with HEK293 [5] it was 17.9 µM (active); with Jurkat [6] it was 10.6 µM (active). For the same molecule, the EC50 was 10.6 µM (active) in [2], > 120 µM (not active) in test [3] and 11.1 µM (active) in test [4]. Besides, the CC50 in the test with Vero is 23.4 µM (active).

`Cc1cc(N2CCN(C(c3ccccc3)c3ccccc3)CC2)n2ncnc2n1`: the values for the AC50 (in [7]; on CAAX prenyl protease 2) were 159 µM (active) and 7.39 µM (active), respectively.

In the case of `Nc1nc(Nc2cccc(F)c2)nc(NCCO)c1[N+](=O)[O-]`, the figures for the concentration at half-maximal activity (AC50) in test [8] and in [9] were 0.953 µM (active) and 0.228 µM (active), respectively.

As to `Cc1cc(Cl)c(S(=O)(=O)N2CCCCCC2)cc1OCC(=O)NC1CCCCC1`, the IC50 (with Jurkat [10]; in test [11]) was > 80 µM (inactive) each time.

With `CCO[C@@H]1OC(C(=O)Nc2ccccc2)=C[C@H](c2ccc(Br)cc2)[C@H]1CCCO`, the EC50 in test [12] was 25.2 µM (active); in test [13] it was 11.7 µM (active).

For `CCCSc1nnc(NC(=O)CSc2sc3c(O)cc(O)nc3c2C#N)s1`, the AC50 in test [14] was 106 µM (active); in [15] it was > 30 µM (inactive). In addition, the IC50 in test [16] is 50.7 µM (inactive); in test [17], > 9.99 µM (inactive); in test [18], 3.46 µM (active).

As to `CCN(CC)S(=O)(=O)c1ccc(C(=O)OCCN2C(=O)c3cccc4c(N5CCOCC5)ccc(c34)C2=O)cc1`, the AC50 on Keap1/Nrf2 was 13.9 µM (active). Moreover, the EC50 in test [19] was 6.47 µM (active).

In the case of `CCCNc1ncnc2ccc(-c3ccc4c(c3)OCO4)cc12`, the AC50 in test [20] was 0.00314 µM (active).

For the molecule `COc1ccc(C(=O)NC2CCSc3ccccc32)cc1S(N)(=O)=O` (configuration not stated), the IC50 in test [21] and in test [22] was > 100 µM (inactive) each time.

Regarding `O=C(O)C(c1ccccc1)N1C(=O)c2ccccc2C1=O` (configuration not stated), the IC50 on Hexokinase-1 and at Hexokinase HKDC1 was > 80 µM (inactive) each time.

Turning to `O=[N+]([O-])c1cc(Cl)c2cccnc2c1O`, the EC50 is 0.084 µM (active) in [23], 3.67 µM (active) in test [24], > 180 µM (inactive) in test [25] and 11.1 µM (active) in test [26].

For the origin of these results see ChEMBL document CHEMBL1201862, “PubChem BioAssay data set” (2004).
